PubChem BioAssay AID1918934 (Molecular Pharmacology Branch, DTP, NCI, 2023)

Test system: 292921-168-R-J2-PDC complex spheroid viability
Assay: Anticancer human tumor 292921-168-R-J2-PDC patient-derived pancreatic carcinoma cell line growth inhibition
Settings: for IC50: curve of first compound; for viability, T/C: stronger effect = lower value
In short: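 Complex spheroids of tumor cells with HUVEC and human MSCs, exposed to iadademstat combined with other agents. Each agent tested in half-log steps from near clinical Cmax (else 10 microM top), DMSO ≤0.25%.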

[1] = second compound 0.1 µM, first compound 0.00949 µM
[2] = second compound 0.1 µM, first compound 0.03 µM
[3] = second compound 0.1 µM, first compound 0.0949 µM
[4] = second compound 0.1 µM, first compound 0.3 µM
[5] = second compound 0.1 µM, first compound 0.949 µM
[6] = second compound 0.1 µM, first compound 3 µM
[7] = second compound 0.316 µM, first compound 0.00949 µM
[8] = second compound 0.316 µM, first compound 0.03 µM
[9] = second compound 0.316 µM, first compound 0.0949 µM
[10] = second compound 0.316 µM, first compound 0.3 µM
[11] = second compound 0.316 µM, first compound 0.949 µM
[12] = second compound 0.316 µM, first compound 3 µM
[13] = second compound 1 µM, first compound 0.00949 µM
[14] = second compound 1 µM, first compound 0.03 µM
[15] = second compound 1 µM, first compound 0.0949 µM
[16] = second compound 1 µM, first compound 0.3 µM
[17] = second compound 1 µM, first compound 0.949 µM
[18] = second compound 1 µM, first compound 3 µM
[19] = second compound 3.16 µM, first compound 0.00949 µM
[20] = second compound 3.16 µM, first compound 0.03 µM
[21] = second compound 3.16 µM, first compound 0.0949 µM
[22] = second compound 3.16 µM, first compound 0.3 µM
[23] = second compound 3.16 µM, first compound 0.949 µM
[24] = second compound 3.16 µM, first compound 3 µM
[25] = second compound 10 µM, first compound 0.00949 µM
[26] = second compound 10 µM, first compound 0.03 µM
[27] = second compound 10 µM, first compound 0.0949 µM
[28] = second compound 10 µM, first compound 0.3 µM
[29] = second compound 10 µM, first compound 0.949 µM
[30] = second compound 10 µM, first compound 3 µM
[31] = second compound 0.1 µM, first compound 0.000949 µM
[32] = second compound 0.1 µM, first compound 0.003 µM
[33] = second compound 0.316 µM, first compound 0.000949 µM
[34] = second compound 0.316 µM, first compound 0.003 µM
[35] = second compound 1 µM, first compound 0.000949 µM
[36] = second compound 1 µM, first compound 0.003 µM
[37] = second compound 3.16 µM, first compound 0.000949 µM
[38] = second compound 3.16 µM, first compound 0.003 µM
[39] = second compound 10 µM, first compound 0.000949 µM
[40] = second compound 10 µM, first compound 0.003 µM
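Note: seven day compound exposure before luminescent viability read.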
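Throughout, for viability, T/C: 100% = DMSO vehicle control wells.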

`CC(C)CC(NC(=O)C(Cc1ccccc1)NC(=O)c1cnccn1)B(O)O` (stereo not given) + NC1CCC(NC2CC2c2ccccc2)CC1 gave an IC50 (second compound 0.1 µM) of less than 0.316 nM, an IC50 (second compound 0.316 µM) of less than 0.316 nM and an IC50 (second compound 1 µM) of less than 0.316 nM. The IC50 (second compound 3.16 µM) was less than 0.316 nM, the IC50 (second compound 10 µM) was less than 0.316 nM and the viability, T/C (second compound 0.1 µM, first compound 0.000316 µM) was 16.3%. For the same compound, the viability, T/C (second compound 0.1 µM, first compound 0.001 µM) was 0.63%, the viability, T/C (second compound 0.1 µM, first compound 0.00316 µM) was 0.17% and the viability, T/C (second compound 0.1 µM, first compound 0.01 µM) was 0.16%. It also gave a viability, T/C (second compound 0.1 µM, first compound 0.0316 µM) of 0.11%, a viability, T/C (second compound 0.1 µM, first compound 0.1 µM) of 0.14% and a viability, T/C (second compound 0.316 µM, first compound 0.000316 µM) of 15.9%. The viability, T/C (second compound 0.316 µM, first compound 0.001 µM) was 0.67%, the viability, T/C (second compound 0.316 µM, first compound 0.00316 µM) was 0.21% and the viability, T/C (second compound 0.316 µM, first compound 0.01 µM) was 3.23%. It also gave a viability, T/C (second compound 0.316 µM, first compound 0.0316 µM) of 0.17%, a viability, T/C (second compound 0.316 µM, first compound 0.1 µM) of 0.19% and a viability, T/C (second compound 1 µM, first compound 0.000316 µM) of 16.1%. The viability, T/C (second compound 1 µM, first compound 0.001 µM) was 0.64%, the viability, T/C (second compound 1 µM, first compound 0.00316 µM) was 0.24% and the viability, T/C (second compound 1 µM, first compound 0.01 µM) was 0.12%. The viability, T/C (second compound 1 µM, first compound 0.0316 µM) was 0.26%, the viability, T/C (second compound 1 µM, first compound 0.1 µM) was 0.25% and the viability, T/C (second compound 3.16 µM, first compound 0.000316 µM) was 13.8%. For the same compound, the viability, T/C (second compound 3.16 µM, first compound 0.001 µM) was 0.62%, the viability, T/C (second compound 3.16 µM, first compound 0.00316 µM) was 0.17% and the viability, T/C (second compound 3.16 µM, first compound 0.01 µM) was 0.1%. For the same compound, the viability, T/C (second compound 3.16 µM, first compound 0.0316 µM) was 0.08%, the viability, T/C (second compound 3.16 µM, first compound 0.1 µM) was 0.16% and the viability, T/C (second compound 10 µM, first compound 0.000316 µM) was 12.2%. The viability, T/C (second compound 10 µM, first compound 0.001 µM) was 0.55%, the viability, T/C (second compound 10 µM, first compound 0.00316 µM) was 0.22% and the viability, T/C (second compound 10 µM, first compound 0.01 µM) was 0.19%. The viability, T/C (second compound 10 µM, first compound 0.0316 µM) was 0.14% and the viability, T/C (second compound 10 µM, first compound 0.1 µM) was 0.47%.

`COc1cc(C2c3cc4c(cc3C(OC3OC5COC(C)OC5C(O)C3O)C3COC(=O)C23)OCO4)cc(OC)c1O` (stereo not given) + NC1CCC(NC2CC2c2ccccc2)CC1 gave an IC50 (second compound 0.1 µM) of 23.8 nM, an IC50 (second compound 0.316 µM) of 24.2 nM and an IC50 (second compound 1 µM) of 16.3 nM. It also gave an IC50 (second compound 3.16 µM) of 15.3 nM, an IC50 (second compound 10 µM) of 9.52 nM and a viability, T/C [1] of 62.7%. For the same compound, the viability, T/C [2] was 48.7%, the viability, T/C [3] was 27.9% and the viability, T/C [4] was 20.8%. The viability, T/C [5] was 11.2%, the viability, T/C [6] was 5.3% and the viability, T/C [7] was 67.6%. It also gave a viability, T/C [8] of 45.2%, a viability, T/C [9] of 29.6% and a viability, T/C [10] of 21.5%. For the same compound, the viability, T/C [11] was 8.7%, the viability, T/C [12] was 6.82% and the viability, T/C [13] was 56%. The viability, T/C [14] was 42.9%, the viability, T/C [15] was 30.5% and the viability, T/C [16] was 20%. It also gave a viability, T/C [17] of 8.76%, a viability, T/C [18] of 5.56% and a viability, T/C [19] of 56.1%. The viability, T/C [20] was 40.5%, the viability, T/C [21] was 30.7% and the viability, T/C [22] was 19%. It also gave a viability, T/C [23] of 8.55%, a viability, T/C [24] of 7.39% and a viability, T/C [25] of 50.1%. For the same compound, the viability, T/C [26] was 38.8%, the viability, T/C [27] was 27.3% and the viability, T/C [28] was 16.3%. The viability, T/C [29] was 9.55% and the viability, T/C [30] was 6.68%.

For `CCc1c2c(nc3ccc(O)cc13)-c1cc3c(c(=O)n1C2)COC(=O)[C@]3(O)CC` + NC1CCC(NC2CC2c2ccccc2)CC1, the IC50 (second compound 0.1 µM) was less than 0.949 nM, the IC50 (second compound 0.316 µM) was less than 0.949 nM and the IC50 (second compound 1 µM) was less than 0.949 nM. The IC50 (second compound 3.16 µM) was less than 0.949 nM, the IC50 (second compound 10 µM) was less than 0.949 nM and the viability, T/C [31] was 5.27%. It also gave a viability, T/C [32] of 3.61%, a viability, T/C [1] of 1.77% and a viability, T/C [2] of 0.99%. The viability, T/C [3] was 0.98%, the viability, T/C [4] was 1.08% and the viability, T/C [33] was 5.76%. It also gave a viability, T/C [34] of 4.37%, a viability, T/C [7] of 1.62% and a viability, T/C [8] of 0.85%. The viability, T/C [9] was 0.86%, the viability, T/C [10] was 1.09% and the viability, T/C [35] was 5.78%. It also gave a viability, T/C [36] of 3.94%, a viability, T/C [13] of 1.33% and a viability, T/C [14] of 0.71%. The viability, T/C [15] was 0.85%, the viability, T/C [16] was 0.78% and the viability, T/C [37] was 6.37%. It also gave a viability, T/C [38] of 3.93%, a viability, T/C [19] of 1.39% and a viability, T/C [20] of 0.55%. The viability, T/C [21] was 0.97%, the viability, T/C [22] was 0.91% and the viability, T/C [39] was 4.96%. For the same compound, the viability, T/C [40] was 3.66%, the viability, T/C [25] was 0.99% and the viability, T/C [26] was 0.7%. The viability, T/C [27] was 0.8% and the viability, T/C [28] was 0.74%.

`CCc1c2c(nc3ccc(O)cc13)-c1cc3c(c(=O)n1C2)COC(=O)[C@]3(O)CC` + NC1CC1c1ccc(-c2cccc(O)c2)cc1 was tested, and the IC50 (second compound 0.1 µM) was less than 0.949 nM, the IC50 (second compound 0.316 µM) was less than 0.949 nM and the IC50 (second compound 1 µM) was less than 0.949 nM. The IC50 (second compound 3.16 µM) was less than 0.949 nM, the IC50 (second compound 10 µM) was less than 0.949 nM and the viability, T/C [31] was 4.87%. For the same compound, the viability, T/C [32] was 2.64%, the viability, T/C [1] was 1.33% and the viability, T/C [2] was 1.09%. For the same compound, the viability, T/C [3] was 0.85%, the viability, T/C [4] was 1.26% and the viability, T/C [33] was 4.37%. For the same compound, the viability, T/C [34] was 2.24%, the viability, T/C [7] was 1.21% and the viability, T/C [8] was 0.88%. It also gave a viability, T/C [9] of 1.1%, a viability, T/C [10] of 1.26% and a viability, T/C [35] of 4.54%. For the same compound, the viability, T/C [36] was 2.69%, the viability, T/C [13] was 1.23% and the viability, T/C [14] was 1.12%. For the same compound, the viability, T/C [15] was 1.21%, the viability, T/C [16] was 1.22% and the viability, T/C [37] was 4.42%. It also gave a viability, T/C [38] of 2.55%, a viability, T/C [19] of 1.18% and a viability, T/C [20] of 0.79%. It also gave a viability, T/C [21] of 1.06%, a viability, T/C [22] of 1.13% and a viability, T/C [39] of 5.79%. It also gave a viability, T/C [40] of 3.19%, a viability, T/C [25] of 1.1% and a viability, T/C [26] of 1.82%. It also gave a viability, T/C [27] of 2.43% and a viability, T/C [28] of 1.15%.

Work on `Nc1ccccc1NC(=O)c1ccc(CNC(=O)OCc2cccnc2)cc1` + NC1CC1c1ccc(-c2cccc(O)c2)cc1 yielded an IC50 (second compound 0.1 µM) of 29.5 nM, an IC50 (second compound 0.316 µM) of less than 9.49 nM and an IC50 (second compound 1 µM) of 12.4 nM. The IC50 (second compound 3.16 µM) was less than 9.49 nM, the IC50 (second compound 10 µM) was less than 9.49 nM and the viability, T/C [1] was 60.9%. It also gave a viability, T/C [2] of 49%, a viability, T/C [3] of 34.9% and a viability, T/C [4] of 19.9%. For the same compound, the viability, T/C [5] was 4.91%, the viability, T/C [6] was 0.29% and the viability, T/C [7] was 48.2%. It also gave a viability, T/C [8] of 42.1%, a viability, T/C [9] of 31.2% and a viability, T/C [10] of 19.6%. For the same compound, the viability, T/C [11] was 4.68%, the viability, T/C [12] was 0.3% and the viability, T/C [13] was 53.6%. For the same compound, the viability, T/C [14] was 38.6%, the viability, T/C [15] was 33.7% and the viability, T/C [16] was 18.6%. For the same compound, the viability, T/C [17] was 4.33%, the viability, T/C [18] was 0.19% and the viability, T/C [19] was 47.7%. It also gave a viability, T/C [20] of 38.8%, a viability, T/C [21] of 29.6% and a viability, T/C [22] of 18.9%. For the same compound, the viability, T/C [23] was 3.78%, the viability, T/C [24] was 0.25% and the viability, T/C [25] was 41.9%. It also gave a viability, T/C [26] of 43.8%, a viability, T/C [27] of 30.1% and a viability, T/C [28] of 19%. For the same compound, the viability, T/C [29] was 3.97% and the viability, T/C [30] was 0.74%.
